In patent US20140356433A1, “Pharmaceutical Carrier and Drug Structure Using the Same” (priority 2013, published 2014):

Assay: Retention in stomach, 123I label, single-photon emission computed tomography
Format: in vivo
Settings: mice, 24 hours after feeding, 123I labeled, SPECT (FIG. 3)
From the text: Then, in order to examine the retention time of the present drug structure in stomach, sample B of embodiment 1 was labeled with radioactive Iodine 123 (^123I) and fed to experimental mice. Single-photon emission computed tomography was respectively conducted at 1st, 4th, and 24th hour after feeding to observe the location of the present drug structure inside the mice's bodies.

## CC1(C)S[C@@H]2[C@H](NC(=O)[C@H](N)c3ccc(O)cc3)C(=O)N2[C@H]1C(=O)O [amoxicillin]
  presence in stomach after feeding: had no longer existed in the stomach after 24 hours
